Measured values reported in patent US20070060548A1, “Modulation of Epac, phospholipase Cepsilon, and phospholipase D to treat pain” (The Regents of the University of California, priority 2005, published 2007).
“And” between values parts separate entries of the source, which are not always exact repeats. Equal values may be shown once. “Also recorded” adds a separate entry of the source. Read-outs that look alike come from different tables or passages of the source.

Experiments:
[1] = test system: PKCε translocation in cultured DRG neurons; assay: PKCε translocation to the plasma membrane in cultured DRG neurons (immunocytochemistry, 50 cells per culture counted); type: cell-based, rat; settings: for PKCε translocating cells after inhibitor pretreatment and CPTOMe stimulation: 15 min pretreatment (U73122/U73343 10 μM, 1-/2-butanol 50 mM), then CPTOMe 10 μM 90 s
Method: Cultures of dissociated dorsal root ganglia were prepared from male Sprague-Dawley rats (200-300 g, Charles River, Hollister, Calif., USA), adapting a previously described protocol (Khasar et al., 1999b). Rats were anesthetized with an overdose of Nembutal (50 mg per animal, s.c.). L1-L6 DRGs were removed, desheathed, pooled, incubated with collagenase (final concentration (f.c.) 0.125%, 1 h, 37° C.) followed by a trypsin digest (f.c. 0.25%, 7 min, 37° C.). Cells were separated by trituration with a fire polished Pasteur pipette. Axon stumps and dead cells were removed by straining (40 μm mesh), followed by centrifugation (3 min, 500 g). Cells were resuspended in 12 ml Neurobasal A/B27-media and plated 0.5 ml (=0.5 DRG equivalents) per culture onto polyornithine/laminin precoated glass cover slips (12 mm diameter) and incubated over night in 24-well plates at 37° C. in 5% CO2. Variability between batches of NeurobasalA media and its B27 supplement resulting in varying translocation of PKCε after stimulation was counteracted by the addition of up to […] ethanol (according to technical support of Invitrogen, less than 2.5% of the ethanol concentration already in the medium).
After a 15-20 h incubation, to allow cells to adhere to coverslips, the cells were stimulated. To ensure homogeneous dispersion of the stimulants, 250 μl of the 500 μl medium was removed, mixed thoroughly with the respective activator/inhibitor and added back to the same culture. […] Activators were added for the indicated time in concentrations based on literature reports. For all agonists time courses were established (some data not shown). Negative controls (unstimulated cells) were treated alike only without the addition of any pharmaceutical reagent. While the physiological stimulus epinephrine was used for the in vivo experiments, the β-AR agonist isoproterenol was used in vitro for identification of the β-AR subtype. After treatment the cells were washed once with phosphate buffered saline (PBS) and fixed with para-formaldehyde (PFA) (4%, 10 min, room temperature (RT)).
PFA-fixed cells were permeabilized with 0.1% Triton X-100 (10 min, RT), followed by three washes with 0.1% bovine serum albumin (BSA)/PBS (5 min, RT). After blockage of unspecific binding sites (5% BSA/10% normal goat serum/PBS, 1 h, RT) the cultures were probed with the respective primary antibody in 1% BSA/PBS (over night, 4° C.), washed three times (1% BSA/PBS, 5 min, RT) and incubated with the secondary fluorophore-coupled antiserum (final concentration (f.c.) 1:200, 1 h, RT). After three final washes (PBS, 5 min, RT), the cultures were mounted with Vectashield onto microscope slides and sealed with nail polish.
Cells were evaluated with a Nikon Microphot FXA microscope, using a 50× oil objective. 50 randomly selected cells per culture were evaluated. Data are plotted as mean percentage of translocating cells per evaluated culture±standard error of means (SEM) based on the number of evaluated cultures. All counting was done in blind fashion by the same observer. All treatments have been repeated with DRG-neurons from different rats, on at least 2 separate days. Confocal images were taken with a 100× oil immersion objective using a Zeiss Axiovert 100 microscope (Carl Zeiss Inc.) attached to a MRC 1000 confocal microscope (Bio-Rad). Epifluorescent images were taken with a 63× oil immersion objective using a Zeiss Axiovert 100 microscope.

Sprague-Dawley rats = assay: Mechanical nociceptive threshold, Randall-Selitto paw pressure test after intradermal injection; type: in vivo, rat; settings: for change of baseline mechanical sensitivity (paw-withdrawal threshold): inhibitor alone, without stimulation (U73122/U73343 2.5 μl 1 μg/μl, 1-/2-butanol 2.5 μl); for CPTOMe-induced hyperalgesia after inhibitor preinjection: inhibitor preinjected 30 min before CPTOMe, positive = hyperalgesia; for effect on epinephrine-induced mechanical hyperalgesia: preinjection 30 min before epinephrine (also stated for CPTOMe); for reduction of paw-withdrawal threshold: agent alone, intradermal (epinephrine 0.1 μg, CPTOMe 6.3 μg in 2.5 μl), measured 30 min after injection
Method: Behavioral experiments were performed on male Sprague-Dawley rats (200-300 g, Charles River, Hollister, Calif., USA). Animals were housed in a controlled environment in the Animal Care Facility of the University of California, San Francisco, under a 12 h light/dark cycle. Food and water were available ad libitum. Care and use of animals conformed to NIH guidelines. The UCSF Committee on Animal Research approved experimental protocols. All efforts were made to minimize the number of animals used. The nociceptive flexion reflex was quantified using the Randall-Selitto paw pressure device (Analgesymeter®, Stoetling), which applies a linearly increasing mechanical force to the dorsum of the rat's hind paw. The nociceptive mechanical threshold was defined as the force in grams at which the rat withdrew its paw. The protocols for this procedure have been previously described (Taiwo and Levine, 1989; Dina et al., 2003). Baseline paw-withdrawal threshold was defined as the mean of six readings before test agents were injected. Each paw was treated as an independent measure and each experiment was performed on a separate group of rats. Each group of rats was treated with only one agonist and/or antagonist injected peripherally by the intradermal route. Measurement of nociceptive threshold was taken 30 min after the administration of the hyperalgesic mediator. All behavioral testing was done between 10.00 and 16.00 h. The blocking agents were injected as described previously ([…] et al., 1995; […] et al., 1999a). […] […] et al., 1999a).

[2] = 15 min pretreatment (ICI 118,551 50 μM, D-609 30 μM, U73122/U73343 10 μM, 1-/2-butanol 50 mM, BIM 100 nM), then isoproterenol 1 μM 30 s
[3] = activator alone, 30 s stimulation (isoproterenol 1 μM, cholera toxin 1 μg/ml, forskolin 5 μM, CPTOMe 10 μM), mean±SEM

Row | Compound | PKCε translocating cells after inhibitor pretreatment and isoproterenol stimulation [1, 2] | PKCε translocating cells after inhibitor pretreatment and CPTOMe stimulation [1] | change of baseline mechanical sensitivity (paw-withdrawal threshold) (Sprague-Dawley rats) | CPTOMe-induced hyperalgesia after inhibitor preinjection (Sprague-Dawley rats) | also measured
1 | CCCCO [1-butanol] | 5.5±1.1% | 8.7±1.5% | −0.0%±1.8% | −0.5%±1.8% | effect on epinephrine-induced mechanical hyperalgesia (Sprague-Dawley rats): inhibits completely
2 | CCC(C)O (stereo not shown) [2-butanol] | 16.0±2.4% | 21.8±2.7% | −8%±1.7% | 33.4±1.7% | 
3 | CN(C)CCCn1cc(C2=C(c3c[nH]c4ccccc34)C(=O)NC2=O)c2ccccc21 [BIM, bisindolylmaleimide I] |  |  |  |  | PKCε translocating cells after inhibitor pretreatment and isoproterenol stimulation [1]: 19.8±1.3%
4 | Cc1ncc2ccccc2c1C#N [CMIQ, 4-cyano-3-methylisoquinoline] |  |  |  |  | effect on isoproterenol-induced PKCε translocation ([1]; 15 min preincubation, up to 1000-fold IC50 (0.03-30 μM), then isoproterenol 1 μM 30 s): still translocated to the plasma membrane, as in control conditions; effect on mechanical paw-withdrawal threshold (Sprague-Dawley rats; CMIQ alone 2.5 μg/2.5 μl intradermally): did not change; effect on PKA catalytic subunit-induced hyperalgesia (Sprague-Dawley rats; CMIQ preinjected 15 min before PKAcs): completely abrogated; also recorded: completely blocked
5 | CO[C@@H]1[C@@H]2OP(=O)(O)OC[C@H]2O[C@H]1n1c(Sc2ccc(Cl)cc2)nc2c(N)ncnc21 [CPTOMe, 8-CPT-2′-O-Me-cAMP] |  |  |  |  | PKCε translocating cells [1]: 20.3±2.6% and 23.5±3.7%; time of maximal PKCε translocation ([1]; activator alone, time course): 90 s; CPTOMe-induced hyperalgesia (Sprague-Dawley rats; CPTOMe alone, comparator of the inhibitor experiment): 31.7%±0.8%; reduction of paw-withdrawal threshold (Sprague-Dawley rats): 34.6±1.6%
6 | S=C([S-])OC1CC2CC1C1CCCC21.[K+] [D-609] | 20.8±2.9% |  |  |  | 
7 | Cc1ccc(OCC(O)C(C)NC(C)C)c2c1CCC2 (stereo not shown) [ICI 118,551] | 3.0%±1.1% |  |  |  | 
8 | COc1ccc2c(c1)CC[C@@H]1[C@@H]2CC[C@]2(C)[C@@H](NCCCCCCN3C(=O)C=CC3=O)CC[C@@H]12 [U73122] | 0.3±0.3% | 2.0±0.9% | −4.4%±1.3% | −2.5%±2.0% | effect on epinephrine-induced mechanical hyperalgesia (Sprague-Dawley rats): completely blocked
9 | COc1ccc2c(c1)CC[C@@H]1[C@@H]2CC[C@]2(C)[C@@H](NCCCCCCN3C(=O)CCC3=O)CC[C@@H]12 [U73343] | 15.3±1.9% | 23.7±3.6% | 2.8%±1.9% | 30.9%±1.9% | 
10 | CNC[C@H](O)c1ccc(O)c(O)c1 [epinephrine] |  |  |  |  | reduction of paw-withdrawal threshold (Sprague-Dawley rats): 37.7±1.9%
11 | C=C[C@@]1(C)CC(=O)[C@]2(O)[C@@]3(C)[C@@H](O)CCC(C)(C)[C@@H]3[C@H](O)[C@H](OC(C)=O)[C@@]2(C)O1 [forskolin] |  |  |  |  | PKCε translocating cells [1, 3]: 22.3±4.2%
12 | CC(C)NC[C@H](O)c1ccc(O)c(O)c1 [isoproterenol, (−)-isoproterenol] |  |  |  |  | PKCε translocating cells [1, 3]: 21.3%±2.8% and 19.0±3.0%; time of maximal PKCε translocation ([1]; activator alone, time course): about 30 s
13 | cholera toxin |  |  |  |  | PKCε translocating cells [1]: 15.2±3.0% and 24.0±1.9%; time of maximal PKCε translocation [1]: 90 s
